Data reported in patent US7214495B2, “Screening method” (Takeda Pharmaceutical Company Limited, priority 2002, dated 2007).

Experiments:
human GPR40 [1] = molecular target: T1, human GPR40 (Homo sapiens, UniProt O14842); assay: EC50 by FLIPR calcium assay in CHO cells stably expressing human GPR40; type: cell-based; details: intracellular calcium, FLIPR, stable CHO line; read-out: EC50 Human GPR40
T1 construct: The resulting fragment (ca. 1 kb) was introduced into vector pAKKO-111, which was used for transfection of CHO cells; expressed in transfected cells
T1 sequence (O14842 whole entry, the tested form may be a part): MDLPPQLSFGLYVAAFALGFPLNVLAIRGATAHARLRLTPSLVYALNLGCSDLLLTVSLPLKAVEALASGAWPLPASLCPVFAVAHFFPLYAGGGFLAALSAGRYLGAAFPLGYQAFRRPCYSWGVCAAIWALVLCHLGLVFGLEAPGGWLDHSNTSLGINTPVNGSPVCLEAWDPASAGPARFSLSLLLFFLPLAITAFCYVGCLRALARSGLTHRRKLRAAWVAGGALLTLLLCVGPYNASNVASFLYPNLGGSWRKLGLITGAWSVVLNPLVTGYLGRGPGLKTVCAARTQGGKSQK

Rat GPR40 = molecular target: T2, Rat GPR40 (Rattus norvegicus, UniProt Q8K3T4); assay: EC50 by FLIPR calcium assay in CHO cells stably expressing rat GPR40; type: cell-based; details: intracellular calcium, FLIPR, stable CHO line; read-out: EC50 Rat GPR40
T2 construct: expressed in transfected cells
T2 sequence (Q8K3T4 whole entry): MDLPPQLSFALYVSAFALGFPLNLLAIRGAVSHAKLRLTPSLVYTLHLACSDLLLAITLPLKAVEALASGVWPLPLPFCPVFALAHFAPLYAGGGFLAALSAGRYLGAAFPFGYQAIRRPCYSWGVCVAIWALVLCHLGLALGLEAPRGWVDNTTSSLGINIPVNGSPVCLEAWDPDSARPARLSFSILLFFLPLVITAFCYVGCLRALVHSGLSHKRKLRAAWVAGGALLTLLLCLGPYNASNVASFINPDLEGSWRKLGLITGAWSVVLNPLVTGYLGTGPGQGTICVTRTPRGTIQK

MIN6 cells = assay: FLIPR intracellular calcium assay using MIN6; type: cell-based, mouse; details: 10 μM fatty acid
Experimental: Mouse pancreatic β cell line MIN6 incubated in a flask was scraped using PBS containing 2.5 mM EDTA and diluted so as to contain 3×10^5 cells/1 mL of the medium. The dilution was dispensed in a Black welled 96-well plate (Coster) in 100 μL/well, followed by incubation in a CO2 incubator for 2 days. The medium used was 4.5 g/l of glucose-containing Dulbecco's Modified Eagle Medium (DMEM, Invitrogen, Inc.) supplemented with 15% fetal calf serum (ThermoTrace, Inc.), 5.5 μM 2-mercaptethanol (Invitrogen, Inc.), 20 mM HEPES pH 7.3, 100 U/ml penicillin and 100 μg/ml streptomycin. To the thus prepared MIN6 cells, various fatty acids (10 μM) were added and the changes in intracellular calcium level in this case were measured using FLIPR (Molecular Device). The changes in the intracellular calcium ion level on FLIPR were assayed in accordance with the procedures described in EXAMPLE 24.

human GPR40 [2] = molecular target: T1, human GPR40; assay: cAMP production in human GPR40-expressed CHO cells; type: cell-based; details: 10 minutes; for cAMP production activity, presence of forskolin: 2 μM forskolin
Experimental: Human and mouse GPR40-expressed CHO cells were incubated for 20 hours in a 96-well Plate at a density of 1×10^5/well. After the cells were washed twice with 100 μl of Assay Buffer (DMEM (Invitrogen) containing 0.1 mM IBMX (Wako Pure Chemical) and 0.1 mM Ro-20-1724 (Biomol)), DHA, solutions of linoleic acid and […] (both by SIGMA) in Assay Buffer in the presence or absence of 2 μM forskolin (Wako Pure Chemical) were added to the cells, followed by reacting at 37° C. for 10 minutes. After the reaction, the cells were lysed in accordance with the formulation of cAMP Screen (ABI) and the cAMP level in the cells was assayed.

Structure (SMILES) | EC50 (human GPR40 [1]) [µM] | EC50 (Rat GPR40) [µM] | intracellular Ca^2+ level in MIN6 (MIN6 cells) | cAMP production activity, presence of forskolin (human GPR40 [2]) | cAMP production activity, absence of forskolin (human GPR40 [2])
CCCCC/C=C\C/C=C\C/C=C\C/C=C\CCCC(=O)O [Arachidonic acid (C20:4), Arachidonic acid] | 2.4 ± 0.6 | 8 ± 0.6 | increased |  | 
CC/C=C\C/C=C\C/C=C\C/C=C\C/C=C\C/C=C\CCC(=O)O [Docosahexaenoic acid (C22:6), 4Z,7Z,10Z,13Z,16Z,19Z-docosahexaenoic acid] | 1.1 ± 0.3 | 13 ± 1.7 | increased | weakly shown | did not show any cAMP production activity
CCCCC/C=C\C/C=C\CCCCCCCC(=O)O [Linoleic acid (C18:2), Linoleic acid] | 1.8 ± 0.1 | 4.1 ± 0.5 | increased | weakly shown | did not show any cAMP production activity
CCCCCCCC/C=C\CCCCCCCC(=O)O [Oleic acid (C18:1), Oleic acid] | 2 ± 0.3 | 3.4 ± 0.4 | increased |  | 
CCCCC/C=C\C/C=C\C/C=C\CCCCC(=O)O [γ-Linolenic acid (C18:3), γ-Linolenic acid] | 4.6 ± 1.6 | 5.4 ± 1.1 | increased | weakly shown | did not show any cAMP production activity
